Legend:
Conditions in all cases: incubation time: 72 h
CAL-148 [1] = assay: normalised viability (% of control), CellTiter-Blue; higher = more viable cells (about 100 = DMSO control)
Method: (§1)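 DSRT, CellTiter-Blue viability, 72 h incubation. Signal is normalised to DMSO and benzethonium chloride controls. Value is the normalised response at dose 6.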

CAL-51 [2] = assay: as above
Method: as §1

CAL-85-1 [3] = assay: as above
Method: as §1

DU-4475 [4] = assay: as above
Method: as §1

HDQ-P1 [5] = assay: as above
Method: as §1

MDA-MB-453 [6] = assay: as above
Method: as §1

BT-474 [7] = assay: normalised response (% of control), CellTox Green; higher = less cell death (100 = DMSO, 0 = benzethonium chloride kill control)
Summary of the method: (§2)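 Breast cancer cell lines (20 µl suspension) were seeded into 384-well plates holding compound at 5 concentrations in 10-fold steps over a compound-specific 10,000-fold range, then incubated 72 h. CellTox Green fluorescence (485/520 nm) was read first, then CellTiter-Glo luminescence after 10 min at room temperature. Each plate was normalised to 0.1 % DMSO (100) and a positive kill control (0). Each value is the normalised signal at a single concentration of the series.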

BT-549 [8] = assay: as above
Summary of the method: as §2

CAL-120 [9] = assay: as above
Summary of the method: as §2

CAL-148 [10] = assay: as above
Summary of the method: as §2

CAL-51 [11] = assay: as above
Summary of the method: as §2

CAL-85-1 [12] = assay: as above
Summary of the method: as §2

DU-4475 [13] = assay: as above
Summary of the method: as §2

HCC1143 [14] = assay: as above
Summary of the method: as §2

HCC1599 [15] = assay: as above
Summary of the method: as §2

HCC1937 [16] = assay: as above
Summary of the method: as §2

HDQ-P1 [17] = assay: as above
Summary of the method: as §2

Hs578T [18] = assay: as above
Summary of the method: as §2

MCF-10A [19] = assay: as above
Summary of the method: as §2

MDA-MB-231 [20] = assay: as above
Summary of the method: as §2

MDA-MB-436 [21] = assay: as above
Summary of the method: as §2

MDA-MB-453 [22] = assay: as above
Summary of the method: as §2

MDA-MB-468 [23] = assay: as above
Summary of the method: as §2

MFM-223 [24] = assay: as above
Summary of the method: as §2

BT-474 [25] = assay: normalised response (% of control), CellTiter-Glo; higher = more viable cells (100 = DMSO, 0 = benzethonium chloride kill control)
Method: (§3)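 DSRT, 72 h incubation, CellTox Green / CellTiter-Glo readout. Signal is normalised to DMSO and benzethonium chloride controls. Value is the normalised response at the highest dose.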

BT-549 [26] = assay: as above
Method: as §3

CAL-120 [27] = assay: as above
Method: as §3

CAL-148 [28] = assay: as above
Method: as §3

CAL-51 [29] = assay: as above
Method: as §3

CAL-85-1 [30] = assay: as above
Method: as §3

DU-4475 [31] = assay: as above
Method: as §3

HCC1143 [32] = assay: as above
Method: as §3

HCC1599 [33] = assay: as above
Method: as §3

HCC1937 [34] = assay: as above
Method: as §3

HDQ-P1 [35] = assay: as above
Method: as §3

Hs578T [36] = assay: as above
Method: as §3

MCF-10A [37] = assay: as above
Method: as §3

MDA-MB-231 [38] = assay: as above
Method: as §3

MDA-MB-436 [39] = assay: as above
Method: as §3

MDA-MB-453 [40] = assay: as above
Method: as §3

MDA-MB-468 [41] = assay: as above
Method: as §3

MFM-223 [42] = assay: as above
Method: as §3

SK-BR-3 = assay: as above
Method: as §3

`C[C@@H](Oc1cc(-c2cnn(C3CCNCC3)c2)cnc1N)c1c(Cl)ccc(F)c1Cl` [Crizotinib] (300 nM) was tested. Which normalised viability (CAL-148 [1]) did it give?
Its normalised viability is 101%.

And the normalised viability (CAL-51 [2])?
The normalised viability was 99.7%.

What about the normalised viability (CAL-85-1 [3]) of the same compound?
Its normalised viability is 92%.

What about the normalised viability (DU-4475 [4]) of the same compound?
Its normalised viability is 112%.

And the normalised viability (HDQ-P1 [5])?
Its normalised viability is 36.5%.

What about the normalised viability (MDA-MB-453 [6]) of the same compound?
The normalised viability was 71.1%.

`Cc1ccc(-n2nc(C(C)(C)C)cc2NC(=O)Nc2ccc(OCCN3CCOCC3)c3ccccc23)cc1` [Doramapimod] (300 nM) was tested. Which normalised viability (CAL-148 [1]) did it give?
The normalised viability was 91.3%.

And the normalised viability (CAL-51 [2])?
The normalised viability was 107%.

And the normalised viability (CAL-85-1 [3])?
Its normalised viability is 81.1%.

And the normalised viability (DU-4475 [4])?
Its normalised viability is 96.3%.

What about the normalised viability (HDQ-P1 [5]) of the same compound?
Its normalised viability is 38%.

And the normalised viability (MDA-MB-453 [6])?
The normalised viability was 105%.

Which normalised viability (CAL-148 [1]) does the source give for `COc1cc([C@@H]2c3cc4c(cc3[C@@H](O[C@@H]3O[C@@H]5CO[C@@H](C)O[C@H]5[C@H](O)[C@H]3O)[C@H]3COC(=O)[C@H]23)OCO4)cc(OC)c1O` [Etoposide] (300 nM) here?
Its normalised viability is 59.4%.

What about the normalised viability (CAL-51 [2]) of the same compound?
Its normalised viability is 59%.

And the normalised viability (CAL-85-1 [3])?
Its normalised viability is 98.9%.

What about the normalised viability (DU-4475 [4]) of the same compound?
Its normalised viability is 45.6%.

What about the normalised viability (HDQ-P1 [5]) of the same compound?
Its normalised viability is 77.3%.

And the normalised viability (MDA-MB-453 [6])?
The normalised viability was 104%.

Which normalised viability (CAL-148 [1]) does the source give for `Cn1c(CCCC(=O)O)nc2cc(N(CCCl)CCCl)ccc21` [Bendamustine] (300 nM) here?
Its normalised viability is 114%.

And the normalised viability (CAL-51 [2])?
Its normalised viability is 107%.

And the normalised viability (CAL-85-1 [3])?
Its normalised viability is 94.6%.

What about the normalised viability (DU-4475 [4]) of the same compound?
The normalised viability was 108%.

What about the normalised viability (HDQ-P1 [5]) of the same compound?
The normalised viability was 61%.

And the normalised viability (MDA-MB-453 [6])?
Its normalised viability is 96.8%.

`O=P1(NCCCl)OCCCN1CCCl` (stereo not drawn) [Ifosfamide] (300 nM) was tested. Which normalised viability (CAL-148 [1]) did it give?
Its normalised viability is 109%.

And the normalised viability (CAL-51 [2])?
Its normalised viability is 108%.

What about the normalised viability (CAL-85-1 [3]) of the same compound?
The normalised viability was 97.1%.

And the normalised viability (DU-4475 [4])?
Its normalised viability is 78.1%.

And the normalised viability (HDQ-P1 [5])?
The normalised viability was 85.1%.

And the normalised viability (MDA-MB-453 [6])?
The normalised viability was 110%.

Which results are given for `CCC1=C[C@@H]2CN(C1)Cc1c([nH]c3ccccc13)[C@@](C(=O)OC)(c1cc3c(cc1OC)N(C)[C@H]1[C@@](O)(C(=O)OC)[C@H](OC(C)=O)[C@]4(CC)C=CCN5CC[C@]31[C@@H]54)C2` [Vinorelbine] (300 nM)?
normalised viability (CAL-148 [1]): 24.5%; normalised viability (CAL-51 [2]): 35%; normalised viability (CAL-85-1 [3]): 31.4%; normalised viability (DU-4475 [4]): 53.9%; normalised viability (HDQ-P1 [5]): 40.5%; normalised viability (MDA-MB-453 [6]): 25.2%

For `O=C(CCCCCCC(=O)Nc1ccc([C@H]2O[C@@H](CSc3nc(-c4ccccc4)c(-c4ccccc4)o3)C[C@@H](c3ccc(CO)cc3)O2)cc1)NO` [Tubacin] (10000 nM), which normalised response (BT-474 [7]) is on record?
The normalised response was 73.7%.

What about the normalised response (BT-549 [8]) of the same compound?
Its normalised response is 71.7%.

And the normalised response (CAL-120 [9])?
Its normalised response is 75.1%.

And the normalised response (CAL-148 [10])?
Its normalised response is 81.1%.

And the normalised response (CAL-51 [11])?
Its normalised response is 53.8%.

What about the normalised response (CAL-85-1 [12]) of the same compound?
Its normalised response is -3.19%.

And the normalised response (DU-4475 [13])?
The normalised response was 92.1%.

And the normalised response (HCC1143 [14])?
Its normalised response is 27.7%.

What about the normalised response (HCC1599 [15]) of the same compound?
Its normalised response is 95.2%.

What about the normalised response (HCC1937 [16]) of the same compound?
The normalised response was 54.5%.

And the normalised response (HDQ-P1 [17])?
The normalised response was 102%.

And the normalised response (Hs578T [18])?
Its normalised response is 85.2%.

What about the normalised response (MCF-10A [19]) of the same compound?
The normalised response was 110%.

And the normalised response (MDA-MB-231 [20])?
Its normalised response is -21.5%.

And the normalised response (MDA-MB-436 [21])?
The normalised response was 89.9%.

What about the normalised response (MDA-MB-453 [22]) of the same compound?
The normalised response was 39%.

What about the normalised response (MDA-MB-468 [23]) of the same compound?
The normalised response was 98.2%.

What about the normalised response (MFM-223 [24]) of the same compound?
The normalised response was 81.7%.

And the normalised response (BT-474 [25])?
The normalised response was 13.9%.

What about the normalised response (BT-549 [26]) of the same compound?
Its normalised response is 42%.

What about the normalised response (CAL-120 [27]) of the same compound?
Its normalised response is 51.8%.

And the normalised response (CAL-148 [28])?
Its normalised response is 73.5%.

What about the normalised response (CAL-51 [29]) of the same compound?
The normalised response was 35.4%.

And the normalised response (CAL-85-1 [30])?
The normalised response was 18.4%.

What about the normalised response (DU-4475 [31]) of the same compound?
Its normalised response is 70.7%.

What about the normalised response (HCC1143 [32]) of the same compound?
Its normalised response is 37.1%.

What about the normalised response (HCC1599 [33]) of the same compound?
Its normalised response is 13.7%.

What about the normalised response (HCC1937 [34]) of the same compound?
Its normalised response is 32.3%.

And the normalised response (HDQ-P1 [35])?
Its normalised response is 68.6%.

What about the normalised response (Hs578T [36]) of the same compound?
The normalised response was 51.4%.

What about the normalised response (MCF-10A [37]) of the same compound?
The normalised response was 52.4%.

What about the normalised response (MDA-MB-231 [38]) of the same compound?
The normalised response was 8.62%.

And the normalised response (MDA-MB-436 [39])?
Its normalised response is 57.5%.

And the normalised response (MDA-MB-453 [40])?
The normalised response was 6.07%.

And the normalised response (MDA-MB-468 [41])?
Its normalised response is 17.2%.

And the normalised response (MFM-223 [42])?
The normalised response was 38.2%.

And the normalised response (SK-BR-3)?
The normalised response was 45.4%.

— the supplement of paper PMC4862054
